Assays:
Assay type in all cases: cell-based
[1] = test system: A-673; test: CellTiter-Glo cell viability, A-673; settings: Homo sapiens, A673; A-673 cells, 72 h with compound
Procedure: (§1) Antitumor activity against a panel of cancer cell lines Antitumor activity of the compounds was assessed by using the CellTiter-Glow® Luminescent Cell Viability assay (Promega #G7572) according to the manufacturer's instructions. The compounds were tested at 5 or 6 concentrations in 1:2 dilution increments (highest concentration 10 µM) in triplicate well conditions.
(§2) Tumor cells were grown at 37° C. in a humidified atmosphere with 5% CO2 in RPMI 1640 or DMEM medium, supplemented with 10% (v/v) fetal calf serum and 50 μg/ml gentamicin for up to 20 passages, and were passaged once or twice weekly. Cells were harvested using TrypLE or PBS buffer containing 1 mM EDTA, and the percentage of viable cells is determined using a cell counter.
(§3) Cells were harvested from exponential phase cultures, counted and plated in 96 well flat-bottom microtiter plates at a cell density depending on the cell line's growth rate (4,000-20,000 cells/well depending on the cell line's growth rate) in RPMI 1640 or DMEM medium supplemented with 10% (v/v) fetal calf serum and 50 μg/ml gentamicin (140 μl/well). Cultures were incubated at 37° C. and 5% CO2 in a humidified atmosphere. After 24 h, 10 μl of test compounds or control medium are added, and left on the cells for another 72 h. Compounds were serially diluted in DMSO, transferred in cell culture medium, and added to the assay plates. The DMSO concentration was kept constant at <0.2% v/v across the assay plate. Viability of cells was quantified by the CellTiter-Glow® Luminescent Cell Viability assay (Promega #G7572). Luminescence was measured with the microplate luminometer (En Vision Perkin Elmer).
(§4) Sigmoidal concentration-response curves were fitted to the data points (test-versus-control, T/C values) obtained for each tumor model using Graph Pad prism 5.02 software. IC50 values are reported as absolute IC50 values, being the concentration of test compound at the intersection of the concentration-response curves with T/C=50%.

[2] = test system: SK-Mel-5; test: CellTiter-Glo cell viability, SK-Mel-5; settings: Homo sapiens; SK-Mel-5 cells, 72 h with compound
Procedure: as §1, §2, §3, §4

[3] = test system: Wnt/Beta-Catenin; test: SelectScreen CellSensor pathway inhibition, Wnt/Beta-Catenin; settings: Homo sapiens, HCT-116; LEF-TCF-bla HCT116, no stimulus (constitutively activated)
Procedure: (§5) Inhibition of various cellular pathways known to be involved in malignancy was tested using the SelectScreen Cell-based Pathway Profiling GeneBLAzer™ cell signaling pathway specific CellSensor™ cell lines ((Thermo Fisher). The assay is based on a beta-lactamase reporter activity which is modulated and can be measured quantitatively and selectively with the LiveBLAzer™-FRET B/G Loading Substrate. SelectScreen Cell-Based Pathway Profiling Service uses XLfit from IDBS. The dose response curve is curve fit to model number 205 (sigmoidal dose-response model). Custom logic was built by Thermo Fisher for the data analysis tool to address the different compound characteristics that can be observed with functional assays.
Wnt/Beta-Catenin—LEF-TCF-bla HCT116—Inhibitor Screen, Constitutively Activated
LEF-TCF-bla HCT116 cells are thawed and resuspended in Assay Media (OPTI-MEM, 0.5% dialyzed FBS, 0.1 mM NEAA, 1 mM Sodium Pyruvate, 100 U/mL/100 μg/mL Pen/Strep) to a concentration of 312,500 cells/mL. 32 μL of cell suspension is added to each well of a 384-well Poly-D-Lysine assay plate. Cells in Assay Media are incubated for 16-24 hours in the plate at 37° C./5% CO2 in a humidified incubator. 4 μL of a 10× serial dilution of ICG-001 (control inhibitor starting concentration, 25,000 nM) or compounds are added to appropriate wells of the plate. […] The plate is read on a fluorescence plate reader.

[4] = test system: MIA-PaCa-2; test: CellTiter-Glo cell viability, MIA-PaCa-2; settings: Homo sapiens; MIA-PaCa-2 cells, 72 h with compound
Procedure: as §1, §2, §3, §4

[5] = test system: Oxidative Stress; test: SelectScreen CellSensor pathway inhibition, Oxidative Stress; settings: Homo sapiens; ARE-bla HepG2, stimulus tBHQ
Procedure: as §5
Oxidative Stress—ARE-bla HepG2—Inhibitor Screen, Activated by tBHQ
ARE-bla HepG2 cells are thawed and resuspended in Assay Media (DMEM, 10% dialyzed FBS, 25 mM HEPES pH 7.3, 0.1 mM NEAA, 100 U/mL/100 μg/mL Pen/Strep) to a concentration of 375,000 cells/mL. 32 μL of cell suspension is added to each well of a 384-well Poly-D-Lysine assay plate. Cells in Assay Media are incubated for 16-24 hours in the plate at 37° C./5% CO2 in a humidified incubator. […] The plate is read on a fluorescence plate reader.

[6] = test system: NALM-6; test: CellTiter-Glo cell viability, NALM-6; settings: Homo sapiens; NALM-6 cells, 72 h with compound
Procedure: as §1, §2
as §3, with “After 24 h, 10 μl of test compounds or control medium are added, and left on the cells for another 72 h. Compounds were serially diluted in DMSO, transferred in cell culture medium, and added to the assay plates. The DMSO concentration was kept constant at <0.2% v/v across the assay plate.” left out, “Elmer). […]” for “Elmer).”

[7] = test system: MeWo; test: Caspase-Glo 3/7 apoptosis assay, MeWo; settings: MeWo cells, 10 μM, 24 h
Procedure: Apoptosis activity was evaluated using Caspase-Glo 3/7 Assay kit (Promega-G8091) according to the manufacturer's instructions. Cells were grown as above and harvested from exponential phase cultures, counted and plated in 96 black well flat-bottom microtiter plates at a cell density depending on the cell line's growth rate (3,000-10,000 cells/well depending on the cell line's growth rate). Following an overnight incubation, compounds were added to the cell plates at various concentrations (highest at […]) with the DMSO concentration maintained at 0.1% for a 24 h period treatment. 100 μL of Caspase-Glo 3/7 Reagent was added to each well of 96-well plate containing 100 μL culture medium, and after 30 min at room temperature, luminescence was measured with the microplate luminometer (EnVision Perkin Elmer). The induced relative Caspase 3/7 activity of the tested compounds was determined by the following formula: Relative Caspase 3/7 activity (fold increase)=(RLU compound−RLU blank)/(RLU control−RLU blank).

SMILES: COc1ccc2c(=O)c(-c3ccc(CCCC[P+](c4ccccc4)(c4ccccc4)c4ccccc4)cc3)coc2c1OC.[Br-] [SND470, (4-(4-(7,8-Dimethoxy-4-oxo-4H-chromen-3-yl)phenyl)butyl)triphenylphosphonium bromide]
- IC50 [1]: 0.2 µM
- IC50 [2]: 0.47 µM
- IC50 [3]: 0.97 µM
- IC50 [4]: 0.022 µM
- IC50 [5]: 1.35 µM
- IC50 [6]: 0.25 µM
- Fold activation of Caspase 3/7 [7]: 2.55 Fold

Source: patent US20260028364A1, “CATIONIC CHROMENONES AND THEIR USE IN ONCOLOGY” (FLORATEK PHARMA S.A., priority 2022, published 2026)
